Test systems include DU-145 prostate; HS 578T breast; KM12 colon; MDA-MB-231 breast; NCI-H460 lung; SK-OV-3 ovarian; SW-620 colon; TK-10 renal; UACC-257 melanoma; UO-31 renal.
What all share (experiment): NCI anticancer screen, dose series, 48 h

Each structure is given as a SMILES string.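 Interpolation was linear, between the two tested concentrations surrounding the appropriate level; five concentrations were tested over 48 hours in 96-well plates. The concentration for 50% growth inhibition is given as GI50. TGI denotes the concentration required for complete inhibition of growth.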 Where only a bound is given, the exact number is not on record here.

Consider `Oc1ccc(N=Nc2nccs2)c(O)c1`, for which the GI50 in the experiment with DU-145 prostate was 5.23 µM; in the experiment with HS 578T breast, 13.6 µM; in the experiment on KM12 colon, 4.57 µM; in the experiment on MDA-MB-231 breast, 8.77 µM; with NCI-H460 lung, 3.67 µM; in the experiment with SK-OV-3 ovarian, 6.97 µM. Also, the GI50 in the experiment with SW-620 colon is 5 µM; in the experiment on TK-10 renal it was 14 µM; with UACC-257 melanoma, 16.4 µM; in the experiment with UO-31 renal, 3.51 µM. Besides, the TGI in the experiment on DU-145 prostate is 17.1 µM; in the experiment with HS 578T breast, 78.1 µM; with KM12 colon it was 22.7 µM; with MDA-MB-231 breast it was more than 100 µM; in the experiment on NCI-H460 lung it was 17.9 µM; with SK-OV-3 ovarian, 62.6 µM. For the same compound, the TGI was 22.3 µM in the experiment with SW-620 colon, 59.3 µM in the experiment with TK-10 renal, 60.1 µM in the experiment with UACC-257 melanoma and 21.8 µM with UO-31 renal.
For `Oc1ccc(/C=C/c2cc(O)cc3c2C(c2cc(O)cc(O)c2)C(c2ccc(O)c(O)c2)O3)cc1` (configuration not stated), the TGI was more than 100 µM in the experiment on DU-145 prostate; 88.8 µM in the experiment on HS 578T breast; 87.4 µM in the experiment on KM12 colon; 68 µM in the experiment with MDA-MB-231 breast; more than 100 µM in the experiment with SK-OV-3 ovarian; more than 100 µM with SW-620 colon. Moreover, the TGI in the experiment with TK-10 renal, in the experiment on UACC-257 melanoma and in the experiment on UO-31 renal was more than 100 µM each time.
As to `CC(C)(C)c1cc(C(=O)/C=C/c2ccc(C(=O)O)cc2)cc(C(C)(C)C)c1`, the TGI with DU-145 prostate was found to be 8.52 µM; in the experiment on HS 578T breast, 3.96 µM; with KM12 colon, 5.75 µM; with MDA-MB-231 breast, 13 µM; in the experiment with NCI-H460 lung, 7.36 µM; in the experiment on SK-OV-3 ovarian, 12.5 µM. Besides, the TGI stood at 12.1 µM with SW-620 colon, 11.9 µM in the experiment on TK-10 renal, 21.9 µM in the experiment with UACC-257 melanoma and 17.8 µM in the experiment with UO-31 renal.
Take `CNCCn1c(=O)c2cc(OC)c(OC)cc2c2cnc3cc4c(cc3c21)OCO4`: the GI50 with DU-145 prostate was less than 0.01 µM; in the experiment on HS 578T breast it was 1.68 µM; in the experiment on KM12 colon, 0.0483 µM; in the experiment with MDA-MB-231 breast, 0.19 µM; in the experiment with NCI-H460 lung, less than 0.01 µM; in the experiment on SK-OV-3 ovarian, less than 0.0104 µM. Besides, the GI50 with SW-620 colon is 0.0121 µM; with TK-10 renal it was 0.0465 µM; with UACC-257 melanoma it was 0.0267 µM; in the experiment with UO-31 renal, less than 0.01 µM. The TGI with DU-145 prostate was 1.27 µM; in the experiment on HS 578T breast, 4.44 µM; with KM12 colon, 1.6 µM; in the experiment with MDA-MB-231 breast, 1.67 µM; in the experiment with NCI-H460 lung, 0.217 µM; in the experiment with SK-OV-3 ovarian, 1.82 µM. Moreover, the TGI in the experiment on SW-620 colon was 1.95 µM; with TK-10 renal, 2.16 µM; in the experiment with UACC-257 melanoma, 5.66 µM; in the experiment on UO-31 renal it was 1.21 µM.
In the case of `COc1cc(C(=O)O[C@H](C(N)=O)[C@]2(C)CO2)c2cccc(C)c2c1`, the GI50 was less than 0.017 µM with DU-145 prostate; 0.13 µM with HS 578T breast; 0.016 µM with MDA-MB-231 breast; 0.395 µM in the experiment on NCI-H460 lung; 1.45 µM in the experiment with SK-OV-3 ovarian; less than 0.01 µM in the experiment on SW-620 colon. The GI50 was less than 0.0406 µM in the experiment on TK-10 renal, 1.49 µM with UACC-257 melanoma and 0.0404 µM in the experiment on UO-31 renal. The TGI is 0.0928 µM with DU-145 prostate; 15.5 µM with HS 578T breast; 1.29 µM in the experiment on MDA-MB-231 breast; more than 32.1 µM in the experiment with NCI-H460 lung; 7.99 µM with SK-OV-3 ovarian; 1.72 µM with SW-620 colon. In addition, the TGI in the experiment on UACC-257 melanoma is more than 21.3 µM; in the experiment with UO-31 renal, 0.33 µM.
As for `N#CC(C#N)=C1CCCOc2c1ccc1ccccc21`, the GI50 with DU-145 prostate is more than 100 µM; in the experiment with HS 578T breast, 33.4 µM; in the experiment with KM12 colon, more than 100 µM; with NCI-H460 lung, more than 100 µM; in the experiment on SK-OV-3 ovarian it was more than 100 µM; in the experiment on SW-620 colon, more than 100 µM. For the same compound, the GI50 was 42.9 µM in the experiment on TK-10 renal and more than 100 µM in the experiment on UO-31 renal. Further, the TGI in the experiment on DU-145 prostate, in the experiment with HS 578T breast, in the experiment on KM12 colon, with NCI-H460 lung, in the experiment on SK-OV-3 ovarian and with SW-620 colon was more than 100 µM throughout. The TGI with TK-10 renal and in the experiment on UO-31 renal was more than 100 µM each time.
With `COC(=O)[C@]12CC[C@@H](C)[C@H](C)[C@@H]1C1=CC[C@@H]3[C@@]4(C)C(C=O)=C[C@@](C)(COC(=O)c5ccco5)[C@@H]4[C@H](O)C[C@@]3(C)[C@]1(C)CC2`, the GI50 in the experiment with HS 578T breast was 2.72 µM; in the experiment on KM12 colon, 1.83 µM; in the experiment with MDA-MB-231 breast, 2.49 µM; in the experiment on NCI-H460 lung, 2.51 µM; with SK-OV-3 ovarian, 3.64 µM; in the experiment with SW-620 colon it was 2.86 µM. Besides, the values for the GI50 with TK-10 renal, with UACC-257 melanoma and with UO-31 renal were 2.04 µM, 0.263 µM and 1.66 µM, respectively. The TGI with HS 578T breast amounted to 8.96 µM; in the experiment with KM12 colon, 4.5 µM; with MDA-MB-231 breast it was 5.83 µM; with NCI-H460 lung, 6.3 µM; with SK-OV-3 ovarian, 18.3 µM; in the experiment on SW-620 colon it was 8.32 µM. In addition, the TGI amounted to 9.32 µM in the experiment with TK-10 renal, 0.997 µM in the experiment with UACC-257 melanoma and 3.48 µM in the experiment on UO-31 renal.
As for `COc1cc(/C=C2\CCC/C(=C\c3ccc(OCC4CO4)c(OC)c3)C2=O)ccc1OCC1CO1` (configuration not stated), the GI50 in the experiment with DU-145 prostate was 3.06 µM; with HS 578T breast it was 4.22 µM; in the experiment with KM12 colon, 1.88 µM; in the experiment with NCI-H460 lung, 2.37 µM; in the experiment with SK-OV-3 ovarian, 3.54 µM; with SW-620 colon, 2.46 µM. The GI50 is 4.04 µM in the experiment with TK-10 renal, 1.82 µM in the experiment with UACC-257 melanoma and 2.51 µM in the experiment on UO-31 renal. The TGI is 15.8 µM with DU-145 prostate; more than 100 µM in the experiment with HS 578T breast; 5.13 µM in the experiment with KM12 colon; 5.59 µM in the experiment with NCI-H460 lung; 10.7 µM in the experiment with SK-OV-3 ovarian; 5.09 µM with SW-620 colon. Further, the TGI in the experiment on TK-10 renal worked out at 17.6 µM; in the experiment on UACC-257 melanoma it was 3.91 µM; in the experiment with UO-31 renal, 7.94 µM.
As for `Cn1cc(S(=O)(=O)N2CCC3=Cc4c(cnn4-c4ccc(F)cc4)C[C@]3(C(=O)c3cc(C(F)(F)F)ccn3)C2)cn1`, the GI50 in the experiment with DU-145 prostate is more than 100 µM; with HS 578T breast, 37.8 µM; with KM12 colon, 75.8 µM; in the experiment with MDA-MB-231 breast it was more than 100 µM; with NCI-H460 lung it was more than 100 µM; in the experiment on SW-620 colon, more than 100 µM. Further, the values for the GI50 in the experiment with TK-10 renal, with UACC-257 melanoma and in the experiment on UO-31 renal were more than 100 µM, more than 100 µM and 9.52 µM, respectively. Besides, the TGI in the experiment on DU-145 prostate, with HS 578T breast, in the experiment on KM12 colon, in the experiment with MDA-MB-231 breast, in the experiment on NCI-H460 lung and in the experiment on SW-620 colon was more than 100 µM each time. Besides, the TGI in the experiment with TK-10 renal, with UACC-257 melanoma and with UO-31 renal was more than 100 µM each time.
Regarding `C=C1C(=O)OC2C1CC(OC(C)=O)/C(C)=C/CCC1(C)OC21` (configuration not stated), the TGI in the experiment with DU-145 prostate, in the experiment with HS 578T breast, in the experiment with KM12 colon, in the experiment on MDA-MB-231 breast, with NCI-H460 lung and in the experiment with SK-OV-3 ovarian was more than 100 µM in each case. The TGI with SW-620 colon, in the experiment on UACC-257 melanoma and in the experiment with UO-31 renal was more than 100 µM each time.
Turning to `NCCCOc1cc2ccccc2cc1C(=O)NCCCOc1cc2ccccc2cc1C(=O)Nc1ccc(Cl)cc1O`, the GI50 in the experiment with DU-145 prostate was 0.72 µM; in the experiment on HS 578T breast, 1.86 µM; in the experiment with KM12 colon, 0.288 µM; in the experiment with MDA-MB-231 breast, 0.629 µM; with NCI-H460 lung, 0.202 µM; in the experiment on SW-620 colon, 0.189 µM. Further, the GI50 with TK-10 renal was 0.583 µM; in the experiment on UACC-257 melanoma, 1.23 µM; in the experiment with UO-31 renal, 0.355 µM. In addition, the TGI with DU-145 prostate stood at 2.17 µM; in the experiment with HS 578T breast, 4.39 µM; with KM12 colon it was 0.983 µM; with MDA-MB-231 breast, 1.82 µM; in the experiment on NCI-H460 lung, 0.387 µM; in the experiment with SW-620 colon, 0.381 µM. Also, the results for the TGI in the experiment with TK-10 renal, in the experiment on UACC-257 melanoma and in the experiment on UO-31 renal were 1.26 µM, 2.59 µM and 1.78 µM, respectively.
For `COc1cc2c3c(n(CCCN(CCO)CCO)c(=O)c2cc1OC)-c1cc2c(cc1C3=O)OCO2`, the GI50 with DU-145 prostate was less than 0.01 µM; in the experiment with HS 578T breast it was 1.66 µM; in the experiment on KM12 colon, 0.365 µM; in the experiment with MDA-MB-231 breast, 0.583 µM; with NCI-H460 lung it was less than 0.01 µM; with SK-OV-3 ovarian, 2.22 µM. The values for the GI50 with SW-620 colon, with TK-10 renal and in the experiment on UACC-257 melanoma were less than 0.01 µM, 1.23 µM and 1.55 µM, respectively. Further, the TGI amounted to 1.27 µM in the experiment on DU-145 prostate; 13 µM in the experiment with HS 578T breast; 1.84 µM in the experiment with KM12 colon; 2.42 µM in the experiment on MDA-MB-231 breast; 2.28 µM in the experiment on NCI-H460 lung; 34.9 µM in the experiment with SK-OV-3 ovarian. The figures for the TGI in the experiment with SW-620 colon, in the experiment with TK-10 renal and in the experiment on UACC-257 melanoma were 1.71 µM, 6.02 µM and more than 22.5 µM, respectively.
In the case of `C=CCn1c(SCC(=O)Nc2ccc(C(=O)/C=C/c3cc(OC)c(OC)c(OC)c3)cc2)nnc1-c1ccc(OC)cc1`, the GI50 is 0.453 µM in the experiment on DU-145 prostate; 2.12 µM with HS 578T breast; 0.315 µM in the experiment on KM12 colon; 0.888 µM in the experiment on MDA-MB-231 breast; 0.698 µM with NCI-H460 lung; 1.21 µM with SK-OV-3 ovarian. In addition, the results for the GI50 in the experiment on SW-620 colon and in the experiment with TK-10 renal were 0.397 µM and 1.6 µM, respectively. For the same compound, the TGI stood at 16 µM in the experiment on DU-145 prostate; 56.7 µM in the experiment on HS 578T breast; 1.5 µM in the experiment with KM12 colon; 29.9 µM with MDA-MB-231 breast; 2.59 µM in the experiment on NCI-H460 lung; 9.96 µM with SK-OV-3 ovarian. Moreover, the TGI is more than 47.4 µM in the experiment on SW-620 colon and 6.18 µM in the experiment on TK-10 renal.

The values are drawn from PubChem BioAssay (NCI).
